Laboratory results published in PubChem BioAssay (NCI).
Several values for one entry are separate records, joined by “and”; a condition that tells them apart may be missing. Equal entries are not always repeated.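 48-hour exposure; five concentrations; linearly interpolated endpoints. GI50 = concentration required for 50% inhibition of growth. TGI is the concentration that stops growth completely.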

Experiments:
Assay in all cases: inhibition of tumour cell growth, NCI panel, 48 h
786-0 renal = system: 786-0 renal
DMS 273 small cell lung = system: DMS 273 small cell lung
K-562 leukemia = system: K-562 leukemia
OVCAR-3 ovarian = system: OVCAR-3 ovarian
RPMI-8226 leukemia = system: RPMI-8226 leukemia
SK-MEL-28 melanoma = system: SK-MEL-28 melanoma
UO-31 renal = system: UO-31 renal
LXFL 529 NSCLC = system: LXFL 529 NSCLC
HS 578T breast = system: HS 578T breast
DU-145 prostate = system: DU-145 prostate

| Structure (SMILES) | TGI (786-0 renal) [µM] | TGI (DMS 273 small cell lung) [µM] | TGI (K-562 leukemia) [µM] | TGI (OVCAR-3 ovarian) [µM] | TGI (RPMI-8226 leukemia) [µM] | TGI (SK-MEL-28 melanoma) [µM] | TGI (UO-31 renal) [µM] | TGI (LXFL 529 NSCLC) [µM] | GI50 (786-0 renal) [µM] | GI50 (DMS 273 small cell lung) [µM] | GI50 (K-562 leukemia) [µM] | GI50 (OVCAR-3 ovarian) [µM] | GI50 (RPMI-8226 leukemia) [µM] | GI50 (SK-MEL-28 melanoma) [µM] | GI50 (UO-31 renal) [µM] | GI50 (LXFL 529 NSCLC) [µM] | GI50 (HS 578T breast) | TGI (HS 578T breast) [µM] | TGI (DU-145 prostate) [µM] | GI50 (DU-145 prostate) [µM] |
| --- | --- | --- | --- | --- | --- | --- | --- | --- | --- | --- | --- | --- | --- | --- | --- | --- | --- | --- | --- | --- |
| CN1CCCC2(CCCc3ccccc32)C1 (configuration not stated) | > 100 | > 100 | > 100 | > 100 | > 100 | > 100 | > 100 | > 100 | – | – | – | – | – | – | – | – | – | – | – | – |
| CN(C)CC(C)(C)C(=O)/C=C/c1ccc(/C=C/C(=O)C(C)(C)CN(C)C)cc1 | 3.08 | 2.38 | 0.594 | 2.59 | 5.47 | 3.5 | 3.49 | 2.4 | – | – | – | – | – | – | – | – | – | – | – | – |
| COc1ccc2c(CN3CCCCC3CO)cc3cc(OC)c(OC)cc3c2c1 (configuration not stated) | 17.3 | 11.7 | 10.1 | 19.4 | 33 | 18.6 | 12.5 | 16.8 | – | – | – | – | – | – | – | – | – | – | – | – |
| [Cl-].[O-]/N=C(\c1ccccc1)c1ccccn1.[O-]/N=C(\c1ccccc1)c1ccccn1.[O-]/N=C(\c1ccccc1)c1ccccn1.[Sm+3] | 65.5 | 95.1 | > 100 | 73.7 | > 100 | 94.8 | 55.5 | > 100 | 24.1 | 28.7 | 32.6 | 18 | 47.4 | 30.5 | 18.7 | 41.4 | – | – | – | – |
| COc1ccc(OC)c2c1CC(C(=O)O)(C(=O)O)CC2=O | > 100 | – | > 100 | > 100 | – | > 100 | > 100 | > 100 | – | – | – | – | – | – | – | – | – | – | – | – |
| O=c1nc(/C=C/c2ccccc2Cl)cc2n1CCN2CCO | > 100 | – | > 100 | 79.8 | > 100 | > 100 | > 100 | > 100 | – | – | – | – | – | – | – | – | – | – | – | – |
| Cc1[nH]c2ccccc2c1C(=O)CC1(O)C(=O)Nc2ccccc21 (configuration not stated) | > 100 | > 100 | > 100 | – | > 100 | > 100 | > 100 | > 100 | – | – | – | – | – | – | – | – | – | – | – | – |
| COc1ccc2c(c1)N1CCc3cc(OC)c(OC)cc3C1C2 (configuration not stated) | > 100 | > 100 | > 100 | – | – | > 100 | > 100 | > 100 | – | – | – | – | – | – | – | – | – | – | – | – |
| CC(=O)[CH-]C(C)=O.CC(=O)[CH-]C(C)=O.[CH2-]CCC.[CH2-]CCC.[Sn+4] | 1.56 | 2.53 | > 100 | 1.96 | – | 1.67 | 2.21 | 0.185 | 0.351 | 1.19 | 0.283 | 0.707 | – | 0.436 | 1.03 | 0.0493 | – | – | – | – |
| CN(C)CC(C)(C)/C(=N\Nc1ccccc1)c1ccccc1 | > 100 | > 100 | > 100 | > 100 | > 100 | > 100 | 29.3 | 51.4 | – | – | – | – | – | – | – | – | – | – | – | – |
| CCOC(=O)C1N(S(=O)(=O)c2ccc(C)cc2)CCC12c1ccccc1N(C(C)=O)C2c1ccc(OC)c(OC)c1 (configuration not stated) | > 100 | > 100 | > 100 | > 100 | > 100 | > 100 | > 100 | > 100 | – | – | – | – | – | – | – | – | – | – | – | – |
| c1cc(N(CCn2cccn2)CCn2cccn2)cc(N(CCn2cccn2)CCn2cccn2)c1 | > 100 | > 100 | > 100 | > 100 | > 100 | > 100 | > 100 | > 100 | – | – | – | – | – | – | – | – | – | – | – | – |
| O=C1c2ccccc2C(Br)(Br)c2ccccc21 | > 31.6 | > 31.6 | > 31.6 | > 31.6 | – | > 31.6 | > 31.6 | > 31.6 | – | – | – | – | – | – | – | – | – | – | – | – |
| Cc1ccc(S(=O)(=O)N/N=C(\c2nc3ccc(Cl)cc3[nH]c2=O)C(O)c2cccc([N+](=O)[O-])c2)cc1 (configuration not stated) | > 100 | > 100 | > 100 | > 100 | > 100 | > 100 | > 100 | > 100 | – | – | – | – | – | – | – | – | – | – | – | – |
| C[N-]c1nnnn1C.[Au+].c1ccc([PH+](c2ccccc2)c2ccccc2)cc1 | 3.12 | – | 2.88 | 6.53 | 4.54 | 3.13 | 25.3 | 2.83 | 1.74 | – | 0.518 | 2.58 | 1.29 | 1.39 | 12.7 | 1.37 | – | – | – | – |
| COC(=O)N(C(=O)OC)C(C(=O)O)C(C)C (configuration not stated) | > 100 | > 100 | – | – | – | > 100 | > 100 | > 100 | – | – | – | – | – | – | – | – | – | – | – | – |
| CN[C@H]1C=C[C@@H]2/C=C(C)/C=C/[C@@H](C)[C@H]([C@H](C)[C@H](O)[C@@H](C)NC(C)=O)OC(=O)/C=C/C=C(C)\C=C\[C@]2(C)C1 | > 49 | – | > 49 | 46.7 | 33.2 | 33.6 | > 49 | – | 0.00836 | – | 0.0202 | – | 0.0049 | 0.00898 | 0.00994 | – | 0.0597 µM and 0.0123 µM | > 49 | > 49 | – |
| S=C(Nc1ccc(Br)cc1)Nc1ccc(Br)cc1 | > 100 | – | > 100 | > 100 | > 100 | > 100 | > 100 | – | 38.5 | – | 3.62 | 3.58 | 4.05 | 49.8 | 12.7 | – | 85 µM | > 100 | > 100 | 6.41 |
| COc1ccc(Nc2nc3ccc(C(F)(F)F)cc3nc2-c2ccccc2)cc1OC | 72.7 | > 100 | > 100 | > 100 | – | > 100 | 72.9 | > 100 | – | – | – | – | – | – | – | – | – | – | – | – |
| COc1ccc(C(=O)/C=C/c2ccc(C)cc2)cc1OC | 28.7 | – | 50.2 | 12.7 | 47 | 30.1 | 26.8 | – | 15.4 | – | 8.31 | 2.55 | 17.5 | 16.5 | 11 | – | 12.5 µM | 30.3 | 14.4 | 3.2 |
| CCCNNC(=O)/C=C/c1ccc(CNCCc2c(C)[nH]c3ccccc23)cc1 | 1.2 | – | 3.78 | 0.161 | 0.337 | 0.0964 | 0.601 | – | 0.057 | – | 0.0111 | 0.0433 | 0.0101 | 0.0253 | 0.0593 | – | 0.0437 µM | 0.621 | 3.35 | 0.0322 |
